For the assay, the target named is T1, Caspase-3 (Homo sapiens, UniProt P42574).
T1 sequence (P42574 whole entry): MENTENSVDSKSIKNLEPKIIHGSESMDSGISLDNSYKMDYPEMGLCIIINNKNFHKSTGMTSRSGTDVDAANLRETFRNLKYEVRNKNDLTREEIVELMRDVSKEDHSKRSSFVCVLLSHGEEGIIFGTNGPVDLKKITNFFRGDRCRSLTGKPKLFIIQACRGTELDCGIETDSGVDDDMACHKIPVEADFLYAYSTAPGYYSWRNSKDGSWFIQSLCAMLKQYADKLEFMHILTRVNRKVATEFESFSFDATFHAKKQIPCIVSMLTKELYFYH
In words: In vitro inhibitory concentration measured against caspase-3.

The values below come from ChEMBL document CHEMBL1141915, “1,3-Dioxo-4-methyl-2,3-dihydro-1H-pyrrolo[3,4-c]quinolines as potent caspase-3 inhibitors” (Bioorg Med Chem Lett, 2005).

`Cc1nc2ccccc2c2c1C(=O)NC2=O`: the IC50 (commonly the concentration that gives 50% inhibition) was greater than 100 µM.
To `Cc1nc2ccccc2c2c1C(=O)N(C)C2=O` belongs 6.36 µM.
